Measured values from the supplement of paper PMC10307832.

Experiments:
Experiment in all cases: relative viability (nuclei count vs DMSO), 5 days (fraction); higher = more cells survive
XMD8-85 + Olaparib = compound: CN1CCN(CC1)C2=CC(=C(C=C2)NC3=NC=C4C(=N3)N(C5=CC=CC=C5C(=O)N4C)C)OC [XMD8-85] + O=C(c1cc(Cc2n[nH]c(=O)c3ccccc23)ccc1F)N1CCN(C(=O)C2CC2)CC1 [Olaparib] (partner 8 µM)
Procedure, shortened: (§1)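 Values are medians from duplicate plates. Each reflects relative viability, defined as the nuclei count of treated wells over that of vehicle wells. Lung cancer cell lines in 1536-well plates were pin-tool dosed one day after seeding with one drug alone or with a fixed anchor-drug dose plus five library-drug doses (not always all listed) in √10 steps, then fixed, stained and imaged at 4× after 5 days.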

4EGI-1 + OSI-027 = compound: O=C(O)C(Cc1ccccc1[N+](=O)[O-])=NNc1nc(-c2ccc(Cl)c(Cl)c2)cs1 (mixture of isomers) [4EGI-1] + COc1cccc2cc(-c3nc([C@H]4CC[C@H](C(=O)O)CC4)n4ncnc(N)c34)[nH]c12 [OSI-027] (partner 0.5 µM)
Procedure, shortened: as §1

4EGI-1 + Trametinib = compound: O=C(O)C(Cc1ccccc1[N+](=O)[O-])=NNc1nc(-c2ccc(Cl)c(Cl)c2)cs1 (mixture of isomers) [4EGI-1] + CC(=O)Nc1cccc(-n2c(=O)n(C3CC3)c(=O)c3c(Nc4ccc(I)cc4F)n(C)c(=O)c(C)c32)c1 [Trametinib] (partner 0.02 µM)
Procedure, shortened: as §1

4EGI-1 + Crizotinib = compound: O=C(O)C(Cc1ccccc1[N+](=O)[O-])=NNc1nc(-c2ccc(Cl)c(Cl)c2)cs1 (mixture of isomers) [4EGI-1] + C[C@@H](Oc1cc(-c2cnn(C3CCNCC3)c2)cnc1N)c1c(Cl)ccc(F)c1Cl [Crizotinib] (partner 1 µM)
Procedure, shortened: as §1

| Cell Line | relative viability (XMD8-85 + Olaparib; first compound 0.253 µM) | relative viability (XMD8-85 + Olaparib; first compound 0.8 µM) | relative viability (XMD8-85 + Olaparib; first compound 2.53 µM) | relative viability (XMD8-85 + Olaparib; first compound 8 µM) | relative viability (4EGI-1 + OSI-027; first compound 0.5 µM) | relative viability (4EGI-1 + OSI-027; first compound 1.581 µM) | relative viability (4EGI-1 + OSI-027; first compound 5 µM) | relative viability (4EGI-1 + OSI-027; first compound 15.81 µM) | relative viability (4EGI-1 + OSI-027; first compound 50 µM) | relative viability (4EGI-1 + Trametinib; first compound 0.5 µM) | relative viability (4EGI-1 + Trametinib; first compound 1.581 µM) | relative viability (4EGI-1 + Trametinib; first compound 5 µM) | relative viability (4EGI-1 + Trametinib; first compound 15.81 µM) | relative viability (4EGI-1 + Trametinib; first compound 50 µM) | relative viability (XMD8-85 + Olaparib; first compound 0.08 µM) | relative viability (4EGI-1 + Crizotinib; first compound 0.5 µM) | relative viability (4EGI-1 + Crizotinib; first compound 1.581 µM) | relative viability (4EGI-1 + Crizotinib; first compound 5 µM) | relative viability (4EGI-1 + Crizotinib; first compound 15.81 µM) | relative viability (4EGI-1 + Crizotinib; first compound 50 µM) |
| --- | --- | --- | --- | --- | --- | --- | --- | --- | --- | --- | --- | --- | --- | --- | --- | --- | --- | --- | --- | --- |
| NCI-H1793 | 0.574 | 0.71 | 1.02 | 0.66 | 0.331 | 0.287 | 0.355 | 0.247 | 0.134 | 0.49 | 0.431 | 0.414 | 0.407 | 0.273 | – | – | – | – | – | – |
| NCI-H3122 | 0.673 | 0.691 | 0.762 | 0.676 | 1.27 | – | 1.04 | 0.862 | 0.235 | 0.235 | 0.246 | 0.233 | 0.232 | 0.305 | 0.574 | 0.274 | 0.262 | 0.281 | 0.24 | 0.221 |
| NCI-H596 | 0.602 | 0.702 | 0.49 | 0.467 | 0.844 | 0.579 | 0.905 | 0.62 | 0.518 | 1.09 | 0.83 | 0.918 | 0.661 | 0.545 | 0.696 | 1.15 | 0.846 | 1.13 | 0.878 | 0.557 |
| NCI-H2087 | 0.688 | 0.7 | – | 0.533 | 0.693 | 0.523 | 0.656 | 0.438 | 0.203 | 0.212 | 0.2 | 0.234 | 0.2 | 0.126 | 0.527 | 0.896 | 0.754 | 0.811 | 0.643 | 0.478 |
| NCI-H2342 | 0.466 | 0.359 | 0.487 | 0.408 | 0.596 | 0.644 | 0.62 | 0.625 | 0.517 | 0.894 | 0.802 | 0.881 | 0.98 | 0.906 | 0.421 | – | – | – | – | – |
| NCI-H1563 | – | – | – | – | 0.788 | 0.752 | 0.85 | 0.736 | 0.665 | – | – | – | – | – | – | 0.905 | 0.742 | 0.857 | 0.81 | 0.627 |
| NCI-H1395 | 0.426 | 0.43 | 0.474 | 0.452 | 0.647 | 0.43 | 0.686 | 0.567 | 0.355 | 1.34 | – | 1.06 | 1.1 | 0.7 | 0.421 | – | – | – | – | – |
| NCI-H460 | 0.448 | 0.435 | 0.35 | 0.213 | 0.684 | – | 0.668 | 0.3 | 0.0347 | 0.245 | 0.0821 | 0.109 | 0.133 | 0.018 | 0.284 | 1.2 | – | 1.02 | 0.517 | 0.0403 |
| NCI-H2228 | 0.338 | 0.649 | 0.655 | 0.331 | 0.674 | 0.54 | 0.594 | 0.607 | 0.13 | 0.496 | 0.499 | 0.575 | 0.456 | 0.197 | 0.629 | 0.416 | 0.508 | 0.653 | 0.502 | 0.195 |
| HOP-62 | 0.55 | 0.384 | 0.287 | 0.231 | 0.878 | 0.585 | 0.839 | 0.746 | 0.483 | 0.415 | 0.356 | 0.329 | 0.28 | 0.234 | 0.136 | 0.667 | – | 0.938 | 0.89 | 0.574 |
| LC-2-ad | 0.687 | 0.701 | 0.581 | 0.415 | 0.873 | – | 0.894 | 0.386 | 0.234 | 0.919 | 0.886 | 0.855 | 0.843 | 0.595 | 0.771 | 0.433 | – | 0.451 | 0.343 | 0.411 |
| EKVX | 0.83 | 0.998 | 0.898 | 0.901 | 0.736 | 0.594 | 0.738 | 0.567 | 0.696 | 0.436 | – | 0.351 | 0.239 | 0.268 | 0.756 | 1.01 | 0.759 | 1.14 | 0.874 | 0.936 |
| LCLC-103H | 0.759 | 0.768 | 0.793 | 0.665 | 0.479 | 0.469 | 0.482 | 0.471 | 0.333 | 0.684 | 0.634 | 0.626 | 0.581 | 0.465 | 0.84 | 1.05 | 0.926 | 0.937 | 0.857 | 1.05 |
| Calu-6 | 0.574 | 0.596 | 0.558 | 0.395 | – | – | – | – | – | – | – | – | – | – | 0.621 | 0.796 | 0.756 | 0.854 | 0.834 | 0.201 |
| NCI-H1299 | 1 | 0.97 | 0.892 | 0.578 | – | – | – | – | – | – | – | – | – | – | 1.02 | 0.98 | 1 | 0.914 | 0.973 | 0.386 |
| EBC-1 | 0.693 | 0.679 | 0.567 | 0.346 | – | – | – | – | – | – | – | – | – | – | 0.649 | 0.205 | 0.247 | 0.162 | 0.183 | 0.224 |
| NCI-H1703 | – | 0.427 | 0.42 | 0.312 | – | – | – | – | – | – | – | – | – | – | 0.308 | 0.754 | 0.597 | 0.681 | 0.521 | 0.269 |
| NCI-H1648 | 1.14 | 0.919 | 0.482 | 0.861 | 0.254 | 0.26 | 0.252 | 0.302 | 0.213 | 0.574 | 0.506 | 0.471 | 0.526 | 0.304 | 0.857 | – | – | – | – | – |
| SW 900 | 0.705 | 1.15 | 0.786 | 0.376 | 0.72 | – | 0.586 | 0.46 | 0.207 | 1.11 | 0.8 | 0.773 | 0.584 | 0.173 | 0.824 | – | – | – | – | – |
| NCI-H522 | 0.632 | 0.615 | 0.537 | 0.568 | 0.69 | 0.645 | 0.693 | 0.689 | 0.63 | 0.787 | 0.681 | 0.847 | 0.859 | 0.677 | 0.699 | – | – | – | – | – |
